Data taken from patent US12568972B2, “Pyridazinol compounds and derivatives, preparation methods, herbicidal compositions and applications thereof” (Qingdao Kingagroot Chemical Compound Co., Ltd., priority 2018, dated 2026).

Key:
Assay in all cases: Post-emergence test, weed control effect
Format in all cases: in vivo
Details in all cases: Dose 3000 g/ha, after 3 weeks
Amaranthus retroflexus = system: Amaranthus retroflexus
Procedure, shortened: (§1)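 Greenhouse pots, soil-sown, 0.5-2 cm cover; foliar spray at 2-3 leaf stage (2-3 wk post-sowing); cpd in acetone + Tween-80, water-diluted, + 80% veg. oil methyl ester synergist 1500 g/ha; 3 wk culture; fresh-wt inhibition graded 0-10.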

Chenopodiaceae = system: Chenopodiaceae
Procedure, shortened: as §1

Rorippa indica = system: Rorippa indica
Procedure, shortened: as §1

Veronica polita = system: Veronica polita
Procedure, shortened: as §1

O=C(Oc1cc(C(F)(F)F)nnc1-c1ccc(C(F)(F)F)cc1)c1cccc2c1OCO2 [Compound 1-118]
10: weed control effect, Amaranthus retroflexus (activity level) (Amaranthus retroflexus) | weed control effect, Chenopodiaceae (activity level) (Chenopodiaceae) | weed control effect, Rorippa indica (activity level) (Rorippa indica) | weed control effect, Veronica polita (activity level) (Veronica polita)

O=C(Oc1cc(C(F)(F)F)nnc1-c1ccc(F)cc1)c1cccc2ccsc12 [Compound 1-119]
10: weed control effect, Amaranthus retroflexus (activity level) (Amaranthus retroflexus) | weed control effect, Chenopodiaceae (activity level) (Chenopodiaceae) | weed control effect, Rorippa indica (activity level) (Rorippa indica) | weed control effect, Veronica polita (activity level) (Veronica polita)

O=C(Oc1cc(C(F)(F)F)nnc1-c1ccc(F)c(F)c1)c1cc2ccccc2o1 [Compound 1-120]
10: weed control effect, Amaranthus retroflexus (activity level) (Amaranthus retroflexus) | weed control effect, Chenopodiaceae (activity level) (Chenopodiaceae) | weed control effect, Rorippa indica (activity level) (Rorippa indica) | weed control effect, Veronica polita (activity level) (Veronica polita)

CCS(=O)(=O)Oc1cc(C(F)(F)F)nnc1-c1ccc(F)cc1 [Compound 1-121]
10: weed control effect, Amaranthus retroflexus (activity level) (Amaranthus retroflexus) | weed control effect, Chenopodiaceae (activity level) (Chenopodiaceae) | weed control effect, Rorippa indica (activity level) (Rorippa indica) | weed control effect, Veronica polita (activity level) (Veronica polita)

O=S(=O)(Oc1cc(C(F)(F)F)nnc1-c1ccc(C(F)(F)F)cc1)C1CC1 [Compound 1-122]
10: weed control effect, Amaranthus retroflexus (activity level) (Amaranthus retroflexus) | weed control effect, Chenopodiaceae (activity level) (Chenopodiaceae) | weed control effect, Rorippa indica (activity level) (Rorippa indica) | weed control effect, Veronica polita (activity level) (Veronica polita)

CCc1cccc(-c2nnc(C(F)(F)F)cc2OS(=O)(=O)CS(C)(=O)=O)c1 [Compound 1-123]
10: weed control effect, Amaranthus retroflexus (activity level) (Amaranthus retroflexus) | weed control effect, Chenopodiaceae (activity level) (Chenopodiaceae) | weed control effect, Rorippa indica (activity level) (Rorippa indica) | weed control effect, Veronica polita (activity level) (Veronica polita)

O=S(=O)(NCCCCl)Oc1cc(C(F)(F)F)nnc1-c1cccc(F)c1 [Compound 1-124]
10: weed control effect, Amaranthus retroflexus (activity level) (Amaranthus retroflexus) | weed control effect, Chenopodiaceae (activity level) (Chenopodiaceae) | weed control effect, Rorippa indica (activity level) (Rorippa indica) | weed control effect, Veronica polita (activity level) (Veronica polita)

CN1CCN(S(=O)(=O)Oc2cc(C(F)(F)F)nnc2-c2ccc(F)cc2)CC1 [Compound 1-125]
10: weed control effect, Amaranthus retroflexus (activity level) (Amaranthus retroflexus) | weed control effect, Chenopodiaceae (activity level) (Chenopodiaceae) | weed control effect, Rorippa indica (activity level) (Rorippa indica) | weed control effect, Veronica polita (activity level) (Veronica polita)

Cc1ccc(S(=O)(=O)Oc2cc(C(F)(F)F)nnc2-c2ccnc(F)c2)cc1 [Compound 1-126]
10: weed control effect, Amaranthus retroflexus (activity level) (Amaranthus retroflexus) | weed control effect, Chenopodiaceae (activity level) (Chenopodiaceae) | weed control effect, Rorippa indica (activity level) (Rorippa indica) | weed control effect, Veronica polita (activity level) (Veronica polita)

Cc1ccc(S(=O)(=O)Oc2cc(C(F)(F)F)nnc2-c2ccc(F)c(F)c2)cc1 [Compound 1-127]
10: weed control effect, Amaranthus retroflexus (activity level) (Amaranthus retroflexus) | weed control effect, Chenopodiaceae (activity level) (Chenopodiaceae) | weed control effect, Rorippa indica (activity level) (Rorippa indica) | weed control effect, Veronica polita (activity level) (Veronica polita)

O=S(=O)(Oc1cc(C(F)(F)F)nnc1-c1ccc(F)c(F)c1)c1ccc(Cl)cc1F [Compound 1-128]
10: weed control effect, Amaranthus retroflexus (activity level) (Amaranthus retroflexus) | weed control effect, Chenopodiaceae (activity level) (Chenopodiaceae) | weed control effect, Rorippa indica (activity level) (Rorippa indica) | weed control effect, Veronica polita (activity level) (Veronica polita)

O=S(=O)(Oc1cc(C(F)(F)F)nnc1-c1ccc(F)c(F)c1)c1ccc(C(F)(F)F)cc1 [Compound 1-129]
10: weed control effect, Amaranthus retroflexus (activity level) (Amaranthus retroflexus) | weed control effect, Chenopodiaceae (activity level) (Chenopodiaceae) | weed control effect, Rorippa indica (activity level) (Rorippa indica) | weed control effect, Veronica polita (activity level) (Veronica polita)

O=S(=O)(Oc1cc(C(F)(F)F)nnc1-c1ccc(F)c(F)c1)c1ccc(Cl)cc1 [Compound 1-130]
10: weed control effect, Amaranthus retroflexus (activity level) (Amaranthus retroflexus) | weed control effect, Chenopodiaceae (activity level) (Chenopodiaceae) | weed control effect, Rorippa indica (activity level) (Rorippa indica) | weed control effect, Veronica polita (activity level) (Veronica polita)

Cc1cc(C)c(S(=O)(=O)Oc2cc(C(F)(F)F)nnc2-c2ccccc2)c(C)c1 [Compound 1-131]
10: weed control effect, Amaranthus retroflexus (activity level) (Amaranthus retroflexus) | weed control effect, Chenopodiaceae (activity level) (Chenopodiaceae) | weed control effect, Rorippa indica (activity level) (Rorippa indica) | weed control effect, Veronica polita (activity level) (Veronica polita)
